Each structure is given as a SMILES string. Inconclusive results and toxic doses are left out.

This passage reports T/C results from PubChem BioAssay AID328 (DTP/NCI, 2004).

The assay has as its system BDF1 mice, P388 leukemia ip, median survival T/C. In words: NCI In Vivo Anticancer Drug Screen. Data for tumor model P388 Leukemia (intraperitoneal) in B6D2F1 (BDF1) mice. The following applies: endpoint: median survival time, higher = longer survival. The method, boiled down:
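Read-out is survival of treated animals expressed relative to the vehicle group, as a T/C ratio.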

As to `Cc1cc2c(c3oc(C4(C)OC4C4OC4C)cc(=O)c13)C(=O)c1c(O)c(C3CC(C)(N(C)C)C(O)C(C)O3)cc(C3CC(N(C)C)C(O)C(C)O3)c1C2=O` (stereo not given), the T/C is, setting by setting: (dose: 0.01 mg/kg/injection, schedule: Q01DX009 (oral), vehicle: saline) 105 % of control; (dose: 0.03 mg/kg/injection, schedule: Q01DX009 (oral), vehicle: saline) 105 % of control; (dose: 0.06 mg/kg/injection, schedule: Q01DX001 (oral), vehicle: saline) 95 % of control; (dose: 0.06 mg/kg/injection, schedule: Q01DX009 (oral), vehicle: saline) 110 % of control; (dose: 0.06 mg/kg/injection, schedule: Q01DX010 (ip), vehicle: saline) 109 % of control; (dose: 0.12 mg/kg/injection, schedule: Q01DX001 (ip), vehicle: saline) 155 % of control. In addition, the T/C reads like this: (dose: 0.12 mg/kg/injection, schedule: Q01DX001 (oral), vehicle: saline) 104 % of control; (dose: 0.12 mg/kg/injection, schedule: Q01DX009 (oral), vehicle: saline) 110 % of control; (dose: 0.24 mg/kg/injection, schedule: Q01DX001 (ip), vehicle: saline) 190 % of control; (dose: 0.24 mg/kg/injection, schedule: Q01DX001 (oral), vehicle: saline) 104 % of control; (dose: 0.48 mg/kg/injection, schedule: Q01DX001 (ip), vehicle: saline) 200 % of control; (dose: 0.48 mg/kg/injection, schedule: Q01DX001 (oral), vehicle: saline) 100 % of control. Also, the T/C was 95 % of control (dose: 0.1 micrograms/kg/injection, schedule: Q01DX010 (ip), vehicle: carboxymethylcellulose (CMC)); 113 % of control (dose: 0.1 micrograms/kg/injection, schedule: Q01DX010 (ip), vehicle: other); 95 % of control (dose: 0.2 micrograms/kg/injection, schedule: Q01DX010 (ip), vehicle: carboxymethylcellulose (CMC)); 118 % of control (dose: 0.2 micrograms/kg/injection, schedule: Q01DX010 (ip), vehicle: other); 100 % of control (dose: 0.3 micrograms/kg/injection, schedule: Q01DX010 (ip), vehicle: saline); 95 % of control (dose: 0.3 micrograms/kg/injection, schedule: Q01DX010 (ip), vehicle: steriod suspending solution). The T/C is 104 % of control (dose: 0.5 micrograms/kg/injection, schedule: Q01DX010 (ip), vehicle: carboxymethylcellulose (CMC)); 109 % of control (dose: 0.5 micrograms/kg/injection, schedule: Q01DX010 (ip), vehicle: other); 116 % of control (dose: 0.5 micrograms/kg/injection, schedule: Q01DX010 (ip), vehicle: saline); 95 % of control (dose: 0.6 micrograms/kg/injection, schedule: Q01DX010 (ip), vehicle: saline); 120 % of control (dose: 0.6 micrograms/kg/injection, schedule: Q01DX010 (ip), vehicle: steriod suspending solution); 109 % of control (dose: 1.0 micrograms/kg/injection, schedule: Q01DX010 (ip), vehicle: other). Further, the T/C (dose: 1.0 micrograms/kg/injection, schedule: Q01DX010 (ip), vehicle: saline) is 120 % of control; the T/C (dose: 1.3 micrograms/kg/injection, schedule: Q01DX010 (ip), vehicle: saline) was 122 % of control; the T/C (dose: 2.0 micrograms/kg/injection, schedule: Q01DX010 (ip), vehicle: other) is 113 % of control; the T/C (dose: 4.0 micrograms/kg/injection, schedule: Q01DX010 (ip), vehicle: carboxymethylcellulose (CMC)) was 118 % of control; the T/C (dose: 4.0 micrograms/kg/injection, schedule: Q01DX010 (ip), vehicle: saline) is 159 % of control; the T/C (dose: 5.0 micrograms/kg/injection, schedule: Q01DX010 (ip), vehicle: carboxymethylcellulose (CMC)) is 175 % of control. Besides, the T/C is 150 % of control (dose: 5.0 micrograms/kg/injection, schedule: Q01DX010 (ip), vehicle: steriod suspending solution); 155 % of control (dose: 6.0 micrograms/kg/injection, schedule: Q01DX009 (ip), vehicle: saline); 163 % of control (dose: 8.0 micrograms/kg/injection, schedule: Q01DX010 (ip), vehicle: saline); 190 % of control (dose: 10.0 micrograms/kg/injection, schedule: Q01DX010 (ip), vehicle: carboxymethylcellulose (CMC)); 160 % of control (dose: 10.0 micrograms/kg/injection, schedule: Q01DX010 (ip), vehicle: steriod suspending solution); 170 % of control (dose: 12.0 micrograms/kg/injection, schedule: Q01DX009 (ip), vehicle: saline). The T/C runs as follows: (dose: 16.0 micrograms/kg/injection, schedule: Q01DX010 (ip), vehicle: saline) 118 % of control; (dose: 20.0 micrograms/kg/injection, schedule: Q01DX010 (ip), vehicle: saline) 154 % of control; (dose: 20.0 micrograms/kg/injection, schedule: Q01DX010 (ip), vehicle: steriod suspending solution) 180 % of control; (dose: 30.0 micrograms/kg/injection, schedule: Q01DX010 (ip), vehicle: saline) 109 % of control; (dose: 32.0 micrograms/kg/injection, schedule: Q01DX010 (ip), vehicle: other) 177 % of control; (dose: 60.0 micrograms/kg/injection, schedule: Q01DX010 (ip), vehicle: saline) 86 % of control.

Consider `O=[N+]([O-])c1ccc(N=Cc2ccc3c(c2)OCO3)cc1`, for which the T/C reads like this: (dose: 100.0 mg/kg/injection, schedule: Q01DX001 (ip), vehicle: Klucel (hydroxypropylcellulose) (HPC)) 100 % of control; (dose: 200.0 mg/kg/injection, schedule: Q01DX001 (ip), vehicle: Klucel (hydroxypropylcellulose) (HPC)) 95 % of control; (dose: 400.0 mg/kg/injection, schedule: Q01DX001 (ip), vehicle: Klucel (hydroxypropylcellulose) (HPC)) 95 % of control.

As for `O=C1CC=C(Nc2ccc(Br)cc2)C(=O)O1`, the T/C is 99 % of control (dose: 25.0 mg/kg/injection, schedule: Q01DX009 (ip), vehicle: saline); 101 % of control (dose: 50.0 mg/kg/injection, schedule: Q01DX009 (ip), vehicle: saline); 105 % of control (dose: 100.0 mg/kg/injection, schedule: Q01DX009 (ip), vehicle: saline); 112 % of control (dose: 100.0 mg/kg/injection, schedule: Q04DX003 (ip), vehicle: saline); 92 % of control (dose: 200.0 mg/kg/injection, schedule: Q01DX009 (ip), vehicle: saline); 91 % of control (dose: 200.0 mg/kg/injection, schedule: Q04DX003 (ip), vehicle: saline). In addition, the T/C (dose: 400.0 mg/kg/injection, schedule: Q01DX009 (ip), vehicle: saline) was 99 % of control and the T/C (dose: 400.0 mg/kg/injection, schedule: Q04DX003 (ip), vehicle: saline) is 107 % of control.

Take `CS(=O)(=O)N(CC(=O)O)Cc1ccccc1`: the T/C is 107 % of control (dose: 50.0 mg/kg/injection, schedule: Q04DX003 (ip), vehicle: sodium bicarbonate); 119 % of control (dose: 100.0 mg/kg/injection, schedule: Q04DX003 (ip), vehicle: sodium bicarbonate); 103 % of control (dose: 200.0 mg/kg/injection, schedule: Q04DX003 (ip), vehicle: sodium bicarbonate); 110 % of control (dose: 400.0 mg/kg/injection, schedule: Q04DX003 (ip), vehicle: sodium bicarbonate).

For `OCCNCCNCC[OH2+].OCCNCCNCC[OH2+].[Cu+2].[O-][Cl+3]([O-])([O-])[O-]`, the T/C (dose: 12.5 mg/kg/injection, schedule: Q01DX009 (ip), vehicle: other) is 99 % of control; the T/C (dose: 25.0 mg/kg/injection, schedule: Q01DX009 (ip), vehicle: other) is 115 % of control; the T/C (dose: 50.0 mg/kg/injection, schedule: Q01DX009 (ip), vehicle: other) is 109 % of control.

`CC1=CC(C(O)CC(C)C)C(C)(Cc2ccc(C)cn2)NC1c1ccccc1` (stereo not given): the T/C is 107 % of control (dose: 6.25 mg/kg/injection, schedule: Q01DX009 (ip), vehicle: saline with Tween-80); 102 % of control (dose: 12.5 mg/kg/injection, schedule: Q01DX009 (ip), vehicle: saline with Tween-80); 103 % of control (dose: 25.0 mg/kg/injection, schedule: Q01DX009 (ip), vehicle: saline with Tween-80).

As for `O=P(N1CC1)(N1CC1)N1CC1`, the T/C (dose: 3.0 mg/kg/injection, schedule: Q01DX010 (ip), vehicle: saline) is 204 % of control.

Take `CCOC(=O)Nc1cc2c(c(N)n1)N=C(c1ccccc1)CN2`: the T/C is, setting by setting: (dose: 1.0 mg/kg/injection, schedule: Q01DX009 (ip), vehicle: saline with Tween-80) 115 % of control; (dose: 2.0 mg/kg/injection, schedule: Q01DX009 (ip), vehicle: saline with Tween-80) 151 % of control; (dose: 3.0 mg/kg/injection, schedule: Q01DX009 (ip), vehicle: saline with Tween-80) 151 % of control; (dose: 3.0 mg/kg/injection, schedule: Q04DX003 (ip), vehicle: saline with Tween-80) 117 % of control.

Turning to `O=C1C=C(c2ccccc2)C(O)(c2ccccc2)C1` (stereo not given), the T/C by setting is: (dose: 100.0 mg/kg/injection, schedule: Q01DX009 (ip), vehicle: saline with Tween-80) 102 % of control; (dose: 200.0 mg/kg/injection, schedule: Q01DX009 (ip), vehicle: saline with Tween-80) 88 % of control.
